Results reported in patent publication US11917959B2, “Multi-ear system to enhance monocot plant yield” (Monsanto Technology LLC, priority 2015, dated 2024).

Assays:
[1] = system: haploid maize lines (Germplasm A, Germplasm B); experiment: Co-dominant ear induction by PBZ soil drench in colchicine-doubled haploid maize (Example 1); format: in vivo
Excerpt: V1-V3 seedlings of two unique F1 hybrid-derived haploid maize lines, derived from: female heterotic group (Germplasm A) or male heterotic group (Germplasm B), were subjected to a bulk colchicine-based chromosome doubling treatment by removing the seedlings from soil or growth media at the V1-V3 growth stage and aligning their stems and wrapping them together along with several wooden rods into bundle a held together by a strip of aluminum foil (approximate foil strip dimensions were 6 in×18 in). The bundled plants were submerged in plant treatment solution comprising 1250 ppm of colchicine in a centrifuge container and then the entire sample was centrifuged at 50 g for 3 min while the shoot apical meristems (SAMs) remained submerged in the plant treatment agent solution.
Following the first centrifugation, the plant treatment solution was decanted and the seedlings subjected to an addition centrifugation at 335 g for 3 min. During the second centrifugation, the rod-wrap bundle supported the seedlings and prevented the SAMs from contacting the reserve treatment agent that was not absorbed by the plant during application of the centrifugal force.
Following the second centrifugation, the plants were removed from the centrifugation container and the rod-wrap bundle and rinsed with water to remove any remaining colchicine solution, and then recovered and tended in a light, humidity, and temperature-controlled greenhouse for several days before being transplanted to a nursery greenhouse. These centrifuge-based treatment methods are described in more detail in International application number PCT/US2015/028955, which is incorporated by reference herein in its entirety, however, standard doubling treatments can also be applied to any of the haploid doubling steps referred to herein.
Following colchicine doubling treatment, 15-20 plants from each germplasm were planted in pots at two different densities; either as single plants per pot (singles), or as two plants per pot (pairs).
Next, each plant received one of two different doses of PBZ, either 50 mL (low dose) or 60 mL (high dose) of a 2.5% PBZ solution (v/v; 0.4% of active ingredient) in water. These two different doses were applied by soil drench at either the V7 or V8 growth stage, which occurred a total of 23 or 26 days after the seedlings had been subjected to chromosome doubling treatment, respectively. A control group of plants received no treatment solution but were otherwise treated exactly as the experimental groups planted as singles. When pollen shed began at the tassels, the average number of silk-producing ears (i.e. co-dominant ears) were counted for each dosage, germplasm, and treatment time and the results summarized in Table. 1.

[2] = system: eleven corn inbred germplasm; experiment: Chemistry treatment of eleven corn inbred germplasm at V3 or V8 (Example 12); format: in vivo; conditions: for Avg Kernels from Main Stem / Avg Total Kernels Per Plant: auto-self
Excerpt: Seeds for eleven corn inbred germplasm was planted in six-packs and grown in greenhouses under standard conditions as outlined in Example 1. At thirteen days after germination the seedlings for the eleven different germplasm (20 plants per germplasm) were transplanted into standard pots. […]

[3] = pedigree A, 3HV: 14DAP, 4 mg/plant, 2% 50 mL
[4] = pedigree A, 3LV: 14DAP, 4 mg/plant, 6.25% 16 mL
[5] = pedigree A, 8HV: 28DAP, 8 mg/plant, 2% 100 mL
[6] = pedigree A, 8LV: 28DAP, 8 mg/plant, 13% 16 mL
[7] = pedigree B, 3HV: 14DAP, 6 mg/plant, 3% 50 mL
[8] = pedigree B, 3LV: 14DAP, 6 mg/plant, 9.38% 16 mL
[9] = pedigree B, 8HV: 28DAP, 16 mg/plant, 4% 100 mL
[10] = pedigree B, 8LV: 28DAP, 16 mg/plant, 25% 16 mL
[11] = pedigree C, 3LV: 14DAP, 6 mg/plant, 9.38% 16 mL
[12] = pedigree C, 8HV: 28DAP, 16 mg/plant, 4% 100 mL
[13] = pedigree C, 8LV: 28DAP, 16 mg/plant, 25% 16 mL
[14] = pedigree D, 3HV: 14DAP, 6 mg/plant, 3% 50 mL
[15] = pedigree D, 3LV: 14DAP, 6 mg/plant, 9.38% 16 mL
[16] = pedigree D, 8HV: 28DAP, 16 mg/plant, 4% 100 mL
[17] = pedigree D, 8LV: 28DAP, 16 mg/plant, 25% 16 mL
[18] = pedigree E, 3HV: 14DAP, 6 mg/plant, 3% 50 mL
[19] = pedigree E, 3LV: 14DAP, 6 mg/plant, 9.38% 16 mL
[20] = pedigree E, 8HV: 28DAP, 16 mg/plant, 4% 100 mL
[21] = pedigree E, 8LV: 28DAP, 16 mg/plant, 25% 16 mL
[22] = pedigree F, 3HV: 14DAP, 6 mg/plant, 3% 50 mL
[23] = pedigree F, 3LV: 14DAP, 6 mg/plant, 9.38% 16 mL
[24] = pedigree F, 8HV: 28DAP, 16 mg/plant, 4% 100 mL
[25] = pedigree F, 8LV: 28DAP, 16 mg/plant, 25% 16 mL
[26] = pedigree G, 3HV: 14DAP, 6 mg/plant, 3% 50 mL
[27] = pedigree G, 3LV: 14DAP, 6 mg/plant, 9.38% 16 mL
[28] = pedigree G, 8HV: 28DAP, 16 mg/plant, 4% 100 mL
[29] = pedigree G, 8LV: 28DAP, 16 mg/plant, 25% 16 mL
[30] = pedigree H, 3HV: 14DAP, 6 mg/plant, 3% 50 mL
[31] = pedigree H, 3LV: 14DAP, 6 mg/plant, 9.38% 16 mL
[32] = pedigree H, 8HV: 28DAP, 16 mg/plant, 4% 100 mL
[33] = pedigree H, 8LV: 28DAP, 16 mg/plant, 25% 16 mL
[34] = pedigree I, 3HV: 14DAP, 10 mg/plant, 5% 50 mL
[35] = pedigree I, 3LV: 14DAP, 10 mg/plant, 15.63% 16 mL
[36] = pedigree I, 8HV: 28DAP, 32 mg/plant, 8% 100 mL
[37] = pedigree I, 8LV: 28DAP, 32 mg/plant, 50% 16 mL
[38] = pedigree J, 3HV: 14DAP, 10 mg/plant, 5% 50 mL
[39] = pedigree J, 3LV: 14DAP, 10 mg/plant, 15.63% 16 mL
[40] = pedigree J, 8HV: 28DAP, 32 mg/plant, 8% 100 mL
[41] = pedigree J, 8LV: 28DAP, 32 mg/plant, 50% 16 mL
[42] = pedigree K, 3HV: 14DAP, 6 mg/plant, 3% 50 mL
[43] = pedigree K, 8HV: 28DAP, 16 mg/plant, 4% 100 mL
[44] = pedigree K, 8LV: 28DAP, 16 mg/plant, 25% 16 mL
[45] = pedigree K, K3LV: 14DAP, 6 mg/plant, 9.38% 16 mL

CC(C)(C)[C@@H](O)[C@@H](Cc1ccc(Cl)cc1)n1cncn1 (relative stereo) [PBZ, (±)-(R*, R*)-beta-((4-chlorophenyl)methyl)-alpha-(1,1,-dimethylethyl)-1H-1,2,4,-triazole-1-ethanol]
number of co-dominant ears formed per plant ([1]; V7, Germplasm A, pairs, high dose (60 mL 2.5% PBZ)): 3.4 | number of co-dominant ears formed per plant ([1]; V7, Germplasm A, pairs, low dose (50 mL 2.5% PBZ)): 3 | number of co-dominant ears formed per plant ([1]; V7, Germplasm A, singles, high dose (60 mL 2.5% PBZ)): 3.9 | number of co-dominant ears formed per plant ([1]; V7, Germplasm A, singles, low dose (50 mL 2.5% PBZ)): 3.4 | number of co-dominant ears formed per plant ([1]; V7, Germplasm B, pairs, high dose (60 mL 2.5% PBZ)): 1.5 | number of co-dominant ears formed per plant ([1]; V7, Germplasm B, pairs, low dose (50 mL 2.5% PBZ)): 1.5 | number of co-dominant ears formed per plant ([1]; V7, Germplasm B, singles, high dose (60 mL 2.5% PBZ)): 3.3 | number of co-dominant ears formed per plant ([1]; V7, Germplasm B, singles, low dose (50 mL 2.5% PBZ)): 2.7 | number of co-dominant ears formed per plant ([1]; V8, Germplasm A, pairs, high dose (60 mL 2.5% PBZ)): 2.2 | number of co-dominant ears formed per plant ([1]; V8, Germplasm A, pairs, low dose (50 mL 2.5% PBZ)): 2.3 | number of co-dominant ears formed per plant ([1]; V8, Germplasm A, singles, high dose (60 mL 2.5% PBZ)): 3.5 | number of co-dominant ears formed per plant ([1]; V8, Germplasm A, singles, low dose (50 mL 2.5% PBZ)): 2.3 | number of co-dominant ears formed per plant ([1]; V8, Germplasm B, pairs, high dose (60 mL 2.5% PBZ)): 1.5 | number of co-dominant ears formed per plant ([1]; V8, Germplasm B, pairs, low dose (50 mL 2.5% PBZ)): 1.5 | number of co-dominant ears formed per plant ([1]; V8, Germplasm B, singles, high dose (60 mL 2.5% PBZ)): 2.2 | number of co-dominant ears formed per plant ([1]; V8, Germplasm B, singles, low dose (50 mL 2.5% PBZ)): 2.3 | average EP (ear per plant), high dosage greater than low dosage by ([1]; all plants): 0.31 | average EP, high-dose higher than low-dose by ([1]; singles only): 0.55 | minimum increase over control plants ([1]; singles, low dose): ≥ 1.2 EP | kernel number per plant ([2]; diverse germplasm treated at V3 (14DAP) or V8 (28DAP), FIG. 11): average increase in kernel number per plant | decrease in height, on average ([2]; every germplasm tested, FIG. 10): 30-50% | Avg Kernels from Main Stem [2, 3]: 330.50 | Avg Total Kernels Per Plant [2, 3]: 351.00 | Avg Kernels from Main Stem [2, 4]: 352.25 | Avg Total Kernels Per Plant [2, 4]: 515.75 | Avg Kernels from Main Stem [2, 5]: 337.00 | Avg Total Kernels Per Plant [2, 5]: 345.75 | Avg Kernels from Main Stem [2, 6]: 366.50 | Avg Total Kernels Per Plant [2, 6]: 413.00 | Avg Kernels from Main Stem [2, 7]: 204.00 | Avg Total Kernels Per Plant [2, 7]: 215.50 | Avg Kernels from Main Stem [2, 8]: 260.25 | Avg Total Kernels Per Plant [2, 8]: 291.25 | Avg Kernels from Main Stem [2, 9]: 567.00 | Avg Total Kernels Per Plant [2, 9]: 567.25 | Avg Kernels from Main Stem [2, 10]: 427.00 | Avg Total Kernels Per Plant [2, 10]: 432.75 | Avg Kernels from Main Stem [2, 11]: 291.50 | Avg Total Kernels Per Plant [2, 11]: 611.25 | Avg Kernels from Main Stem [2, 12]: 148.00 | Avg Total Kernels Per Plant [2, 12]: 255.25 | Avg Kernels from Main Stem [2, 13]: 325.75 | Avg Total Kernels Per Plant [2, 13]: 513.25 | Avg Kernels from Main Stem [2, 14]: 616.75 | Avg Total Kernels Per Plant [2, 14]: 766.25 | Avg Kernels from Main Stem [2, 15]: 631.25 | Avg Total Kernels Per Plant [2, 15]: 839.25 | Avg Kernels from Main Stem [2, 16]: 581.75 | Avg Total Kernels Per Plant [2, 16]: 646.75 | Avg Kernels from Main Stem [2, 17]: 727.75 | Avg Total Kernels Per Plant [2, 17]: 745.50 | Avg Kernels from Main Stem [2, 18]: 334.50 | Avg Total Kernels Per Plant [2, 18]: 405.25 | Avg Kernels from Main Stem [2, 19]: 291.25 | Avg Total Kernels Per Plant [2, 19]: 422.50 | Avg Kernels from Main Stem [2, 20]: 532.50 | Avg Total Kernels Per Plant [2, 20]: 678.25 | Avg Kernels from Main Stem [2, 21]: 583.25 | Avg Total Kernels Per Plant [2, 21]: 772.75 | Avg Kernels from Main Stem [2, 22]: 414.75 | Avg Total Kernels Per Plant [2, 22]: 1078.75 | Avg Kernels from Main Stem [2, 23]: 392.00 | Avg Total Kernels Per Plant [2, 23]: 777.75 | Avg Kernels from Main Stem [2, 24]: 301.00 | Avg Total Kernels Per Plant [2, 24]: 442.25 | Avg Kernels from Main Stem [2, 25]: 461.00 | Avg Total Kernels Per Plant [2, 25]: 661.00 | Avg Kernels from Main Stem [2, 26]: 381.50 | Avg Total Kernels Per Plant [2, 26]: 905.50 | Avg Kernels from Main Stem [2, 27]: 485.50 | Avg Total Kernels Per Plant [2, 27]: 1033.50 | Avg Kernels from Main Stem [2, 28]: 284.50 | Avg Total Kernels Per Plant [2, 28]: 567.00 | Avg Kernels from Main Stem [2, 29]: 542.75 | Avg Total Kernels Per Plant [2, 29]: 728.25 | Avg Kernels from Main Stem [2, 30]: 77.50 | Avg Total Kernels Per Plant [2, 30]: 80.00 | Avg Kernels from Main Stem [2, 31]: 73.25 | Avg Total Kernels Per Plant [2, 31]: 83.00 | Avg Kernels from Main Stem [2, 32]: 388.50 | Avg Total Kernels Per Plant [2, 32]: 520.00 | Avg Kernels from Main Stem [2, 33]: 439.75 | Avg Total Kernels Per Plant [2, 33]: 564.75 | Avg Kernels from Main Stem [2, 34]: 172.00 | Avg Total Kernels Per Plant [2, 34]: 218.75 | Avg Kernels from Main Stem [2, 35]: 175.00 | Avg Total Kernels Per Plant [2, 35]: 191.25 | Avg Kernels from Main Stem [2, 36]: 508.75 | Avg Total Kernels Per Plant [2, 36]: 550.50 | Avg Kernels from Main Stem [2, 37]: 448.25 | Avg Total Kernels Per Plant [2, 37]: 448.25 | Avg Kernels from Main Stem [2, 38]: 587.00 | Avg Total Kernels Per Plant [2, 38]: 1005.75 | Avg Kernels from Main Stem [2, 39]: 602.75 | Avg Total Kernels Per Plant [2, 39]: 953.25 | Avg Kernels from Main Stem [2, 40]: 361.50 | Avg Total Kernels Per Plant [2, 40]: 398.75 | Avg Kernels from Main Stem [2, 41]: 280.50 | Avg Total Kernels Per Plant [2, 41]: 298.75 | Avg Kernels from Main Stem [2, 42]: 317.75 | Avg Total Kernels Per Plant [2, 42]: 365.00 | Avg Kernels from Main Stem [2, 43]: 446.75 | Avg Total Kernels Per Plant [2, 43]: 487.00 | Avg Kernels from Main Stem [2, 44]: 495.00 | Avg Total Kernels Per Plant [2, 44]: 539.75 | Avg Kernels from Main Stem [2, 45]: 418.75 | Avg Total Kernels Per Plant [2, 45]: 437.75
